# Read-outs that look alike come from different tables or passages of the source.
# Assays:
# [1] = Stability of cannabinoid and Vitamin E components of Beverage 2 (AB Red) stored at 8° C. and 21-25° C., LCMSMS over 570 days; details: 21-25° C.
# Protocol: The LCMSMS was calibrated for 0-50 ng/ml cannabinoids with the same resin material used in the preparation of the concentrates. At each time period, 100 μml of beverage was diluted with 10 ml of methanol and injected into the LCMSMS for analysis.
# [2] = assay type: physicochemical; details: stored at room temperature (21-25° C.)
# Protocol: At each time period, 0.05 g of powder was dissolved in 10 ml-15 of ethanol, diluted to fall within the analytical range, and injected into the LCMSMS for analysis.
smiles,measurement,setting,value
"C=C(C)[C@@H]1CCC(C)=C[C@H]1c1c(O)cc(CCC)cc1O [CBDV, cannabidivarin]",Stability of Cannabinoids in AB Red,[1]; 29 days,0.19 µg/mL
same,Stability of Cannabinoids in AB Red,[1]; 30 days,0.20 µg/mL
same,Stability of Cannabinoids in AB Red,[1]; 60 days,0.20 µg/mL
same,Stability of Cannabinoids in AB Red,[1]; 90 days,0.19 µg/mL
same,Stability of Cannabinoids in AB Red,[1]; 120 days,0.19 µg/mL
same,Stability of Cannabinoids in AB Red,[1]; 150 days,0.20 µg/mL
same,Stability of Cannabinoids in AB Red,[1]; 180 days,0.20 µg/mL
same,Stability of Cannabinoids in AB Red,[1]; 210 days,0.19 µg/mL
same,Stability of Cannabinoids in AB Red,[1]; 240 days,0.20 µg/mL
same,Stability of Cannabinoids in AB Red,[1]; 270 days,0.20 µg/mL
same,Stability of Cannabinoids in AB Red,[1]; 300 days,0.19 µg/mL
same,Stability of Cannabinoids in AB Red,[1]; 330 days,0.19 µg/mL
same,Stability of Cannabinoids in AB Red,[1]; 390 days,0.19 µg/mL
same,Stability of Cannabinoids in AB Red,[1]; 420 days,0.19 µg/mL
same,Stability of Cannabinoids in AB Red,[1]; 450 days,0.19 µg/mL
same,Stability of Cannabinoids in AB Red,[1]; 480 days,0.19 µg/mL
same,Stability of Cannabinoids in AB Red,[1]; 510 days,0.19 µg/mL
same,Stability of Cannabinoids in AB Red,[1]; 540 days,0.19 µg/mL
same,Stability of Cannabinoids in AB Red,[1]; 570 days,0.18 µg/mL
same,Stability in Powder Concentrate (content by LCMSMS),[2]; day 0,0.050 mg/g powder
same,Stability in Powder Concentrate (content by LCMSMS),[2]; day 1,0.051 mg/g powder
same,Stability in Powder Concentrate (content by LCMSMS),[2]; day 2,0.051 mg/g powder
same,Stability in Powder Concentrate (content by LCMSMS),[2]; day 3,0.048 mg/g powder
same,Stability in Powder Concentrate (content by LCMSMS),[2]; day 5,0.050 mg/g powder
same,Stability in Powder Concentrate (content by LCMSMS),[2]; day 8,0.051 mg/g powder
same,Stability in Powder Concentrate (content by LCMSMS),[2]; day 9,0.049 mg/g powder
same,Stability in Powder Concentrate (content by LCMSMS),[2]; day 10,0.050 mg/g powder
same,Stability in Powder Concentrate (content by LCMSMS),[2]; day 11,0.051 mg/g powder
same,Stability in Powder Concentrate (content by LCMSMS),[2]; day 12,0.051 mg/g powder
same,Stability in Powder Concentrate (content by LCMSMS),[2]; day 15,0.050 mg/g powder
same,Stability in Powder Concentrate (content by LCMSMS),[2]; day 16,0.049 mg/g powder
same,Stability in Powder Concentrate (content by LCMSMS),[2]; day 17,0.051 mg/g powder
same,Stability in Powder Concentrate (content by LCMSMS),[2]; day 18,0.051 mg/g powder
same,Stability in Powder Concentrate (content by LCMSMS),[2]; day 19,0.048 mg/g powder
same,Stability in Powder Concentrate (content by LCMSMS),[2]; day 22,0.049 mg/g powder
same,Stability in Powder Concentrate (content by LCMSMS),[2]; day 23,0.050 mg/g powder
same,Stability in Powder Concentrate (content by LCMSMS),[2]; day 24,0.051 mg/g powder
same,Stability in Powder Concentrate (content by LCMSMS),[2]; day 25,0.052 mg/g powder
same,Stability in Powder Concentrate (content by LCMSMS),[2]; day 26,0.050 mg/g powder
same,Stability in Powder Concentrate (content by LCMSMS),[2]; day 29,0.049 mg/g powder
same,Stability in Powder Concentrate (content by LCMSMS),[2]; day 30,0.051 mg/g powder
same,Stability in Powder Concentrate (content by LCMSMS),[2]; day 60,0.050 mg/g powder
same,Stability in Powder Concentrate (content by LCMSMS),[2]; day 90,0.050 mg/g powder
same,Stability in Powder Concentrate (content by LCMSMS),[2]; day 120,0.050 mg/g powder
same,Stability in Powder Concentrate (content by LCMSMS),[2]; day 150,0.051 mg/g powder
same,Stability in Powder Concentrate (content by LCMSMS),[2]; day 180,0.050 mg/g powder
same,Stability in Powder Concentrate (content by LCMSMS),[2]; day 210,0.049 mg/g powder
same,Stability in Powder Concentrate (content by LCMSMS),[2]; day 240,0.052 mg/g powder
same,Stability in Powder Concentrate (content by LCMSMS),[2]; day 270,0.051 mg/g powder
same,Stability in Powder Concentrate (content by LCMSMS),[2]; day 300,0.049 mg/g powder
same,Stability in Powder Concentrate (content by LCMSMS),[2]; day 330,0.052 mg/g powder
same,Stability in Powder Concentrate (content by LCMSMS),[2]; day 360,0.050 mg/g powder
same,Stability in Powder Concentrate (content by LCMSMS),[2]; day 390,0.049 mg/g powder
same,Stability in Powder Concentrate (content by LCMSMS),[2]; day 420,0.051 mg/g powder
same,Stability in Powder Concentrate (content by LCMSMS),[2]; day 450,0.049 mg/g powder
same,Stability in Powder Concentrate (content by LCMSMS),[2]; day 480,0.051 mg/g powder
same,Stability in Powder Concentrate (content by LCMSMS),[2]; day 510,0.049 mg/g powder
same,Stability in Powder Concentrate (content by LCMSMS),[2]; day 540,0.052 mg/g powder
same,Stability in Powder Concentrate (content by LCMSMS),[2]; day 570,0.048 mg/g powder
